This note sets out measurements from ChEMBL document CHEMBL4196213, “Design and Synthesis of Novel Amino-triazine Analogues as Selective Bruton's Tyrosine Kinase Inhibitors for Treatment of Rheumatoid Arthritis” (J Med Chem, 2018).

Values after ≈ are worked out from the molar mass of the structure shown.

The nature of data set [1]: Kinetic solubility of the compound incubated for 1 hr by LC-UV or LC-MS/MS analysis. As to conditions: read-out: Kinetic_solubility. In kind it is physicochemical.
Data set [2] can be described thus: Apparent permeability in human Caco2 cells. In kind it is ADME, cell-based. As to conditions: Caco-2.
Data set [3] in a line: MRT (0 to infinity) in mouse at 2 mg/kg, iv. In kind it is ADME, organism-based. As to conditions: in vivo.
A short description of data set [4]: AUC (0 to t) in rat at 10 mg/kg, po. In kind it is ADME, organism-based. As to conditions: in vivo.
Data set [5] is described as follows: AUC (0 to t) in rat at 1 mg/kg, iv. In kind it is ADME, organism-based. As to conditions: in vivo.
The nature of data set [6]: Tmax in rat at 10 mg/kg, po. It is filed as ADME, organism-based. As to conditions: in vivo.
Data set [7] can be described thus: Volume of distribution in mouse at 2 mg/kg, iv. It is filed as ADME, organism-based. As to conditions: in vivo.
A short description of data set [8]: AUC (0 to t) in mouse at 2 mg/kg, iv. As to conditions: in vivo. It is filed as ADME, organism-based.
The nature of data set [9]: Oral bioavailability in mouse at 10 mg/kg. It is filed as ADME, organism-based. As to conditions: in vivo.
Data set [10] in a line: MRT (0 to infinity) in rat at 1 mg/kg, iv. It is filed as ADME, organism-based. As to conditions: in vivo.
Data set [11] is described as follows: AUC (0 to infinity) in rat at 10 mg/kg, po. It is filed as ADME, organism-based. Details: dose 10 mg/kg, route oral, time infinity. As to conditions: in vivo.
Data set [12] in a line: Oral bioavailability in rat at 10 mg/kg. It is filed as ADME, organism-based. As to conditions: in vivo.
Data set [13] can be described thus: AUC (0 to infinity) in mouse at 10 mg/kg, po. It is filed as ADME, organism-based. Details: dose 10 mg/kg, time infinity, route oral. As to conditions: in vivo.
The nature of data set [14]: Cmax in mouse at 2 mg/kg, iv. In kind it is ADME, organism-based. Details: dose 2 mg/kg, route intravenous. As to conditions: in vivo.
The nature of data set [15]: AUC (0 to t) in mouse at 10 mg/kg, po. In kind it is ADME, organism-based. As to conditions: in vivo.
Data set [16] can be described thus: Volume of distribution in rat at 1 mg/kg, iv. In kind it is ADME, organism-based. As to conditions: in vivo.
Data set [17] can be described thus: MRT (0 to infinity) in rat at 10 mg/kg, po. In kind it is ADME, organism-based. As to conditions: in vivo.
Data set [18] in a line: MRT (0 to infinity) in mouse at 10 mg/kg, po. It is filed as ADME, organism-based. As to conditions: in vivo.
Data set [19] can be described thus: Cmax in rat at 10 mg/kg, po. In kind it is ADME, organism-based. Details: dose 10 mg/kg, route oral. As to conditions: in vivo.
Data set [20] in a line: AUC (0 to infinity) in mouse at 2 mg/kg, iv. It is filed as ADME, organism-based. Details: dose 2 mg/kg, time infinity, route intravenous. As to conditions: in vivo.
Data set [21] can be described thus: Tmax in mouse at 10 mg/kg, po. It is filed as ADME, organism-based. As to conditions: in vivo.
The nature of data set [22]: Cmax in rat at 1 mg/kg, iv. In kind it is ADME, organism-based. Details: dose 1 mg/kg, route intravenous. As to conditions: in vivo.
A short description of data set [23]: MRT (0 to infinity) in dog at 1 mg/kg, iv. In kind it is ADME, organism-based, Canis lupus familiaris. As to conditions: in vivo.
The nature of data set [24]: AUC (0 to infinity) in dog at 2 mg/kg, po. It is filed as ADME, organism-based, Canis lupus familiaris. Details: dose 2 mg/kg, time infinity, route oral. As to conditions: in vivo.
Data set [25] can be described thus: Tmax in dog at 2 mg/kg, po. It is filed as ADME, organism-based, Canis lupus familiaris. As to conditions: in vivo.
Data set [26] can be described thus: AUC (0 to infinity) in dog at 1 mg/kg, iv. In kind it is ADME, organism-based, Canis lupus familiaris. Details: dose 1 mg/kg, time infinity, route intravenous. As to conditions: in vivo.
Data set [27] in a line: Cmax in dog at 1 mg/kg, iv. Details: dose 1 mg/kg, route intravenous. As to conditions: in vivo. It is filed as ADME, organism-based, Canis lupus familiaris.
Data set [28] in a line: Cmax in dog at 2 mg/kg, po. In kind it is ADME, organism-based, Canis lupus familiaris. Details: dose 2 mg/kg, route oral. As to conditions: in vivo.
Data set [29] in a line: Volume of distribution in dog at 1 mg/kg, iv. In kind it is ADME, organism-based, Canis lupus familiaris. As to conditions: in vivo.
Data set [30] in a line: AUC (0 to t) in dog at 2 mg/kg, po. In kind it is ADME, organism-based, Canis lupus familiaris. As to conditions: in vivo.
Data set [31] can be described thus: AUC (0 to t) in dog at 1 mg/kg, iv. As to conditions: in vivo. It is filed as ADME, organism-based, Canis lupus familiaris.
Data set [32] is described as follows: Oral bioavailability in dog at 2 mg/kg, iv. In kind it is ADME, organism-based, Canis lupus familiaris. As to conditions: in vivo.

Regarding `N#Cc1cc(Nc2nc(N)nc(-c3cccc(-n4ccc5cc(C6CC6)cc(F)c5c4=O)c3CO)n2)cn1C1CC1`, the solubility kinetic at 1 h in data set [1] was determined as 4 µM (≈ 2.19 µg/mL).
Consider `Nc1nc(Nc2cnn(C3CC3)c2)nc(-c2cccc(-n3ccc4cc(C5CC5)cc(F)c4c3=O)c2CO)n1`, for which the solubility kinetic at 1 h in [1] stood at 4.7 µM (≈ 2.47 µg/mL).
Still for that read-out and setting: the value for `CC(C)n1cc(Nc2nc(N)nc(-c3cccc(-n4ccc5cc(C6CC6)cc(F)c5c4=O)c3CO)n2)cc1C#N` was 4.8 µM (≈ 2.64 µg/mL); that for `CC(C1CC1)n1cc(Nc2nc(N)nc(-c3cccc(-n4ccc5cc(C6CC6)cc(F)c5c4=O)c3CO)n2)cn1` (configuration not stated) was 2 µM (≈ 1.11 µg/mL).
With `CC(C)(C)c1ccc(C(=O)Nc2cccc(-c3nc(N)nc(Nc4ccc(N5CCOCC5)cc4)n3)c2CO)cc1`, the Papp (as a rule, the rate of passage across a membrane or cell layer, normalised by area and donor concentration) in data set [2] is 16.3 ×10⁻⁶ cm/s.
As to `CCn1cc(Nc2nc(N)nc(-c3cccc(-n4ccc5cc(C6CC6)cc(F)c5c4=O)c3CO)n2)cc1C#N`, in data set [1], the solubility kinetic at 1 h turned out to be 0.71 µM (≈ 0.381 µg/mL).
Regarding `Nc1nc(Nc2cn[nH]c2)nc(-c2cccc(-n3ccc4cc(C5CC5)cc(F)c4c3=O)c2CO)n1`, the solubility kinetic at 1 h in data set [1] came out at 12 µM (≈ 5.81 µg/mL).
Consider `Cn1cc(Nc2nc(N)nc(-c3cccc(-n4ccc5cc(C6CC6)cc(F)c5c4=O)c3CO)n2)cn1` [SOFNOBRUTINIB], for which the MRT inf – broadly, the average time that molecules of a dose stay in the body – in [3] amounted to 1.3 h; in [10], 1.79 h; in data set [17], 4.88 h; in data set [18] it was 1.56 h. The AUC(0-t) (commonly the area under the concentration-time curve up to a stated or last time point) in data set [4] turned out to be 8700 ng·h/mL; in [5], 1920 ng·h/mL; in data set [8] it was 3110 ng·h/mL; in [15], 10200 ng·h/mL. The results for the Tmax in [6] and in [21] were 2 h and 0.5 h, respectively. For the same compound, the values for the distribution volume (Vd) in data set [7] and in data set [16] were 3.03 L/kg and 1.1 L/kg, respectively. For the same compound, the bioavailability (usually the share of a dose that reaches the circulation, judged against a reference dose that is usually intravenous) in [9] came out at 65.8%; in data set [12] it was 44.4%. Moreover, the solubility kinetic at 1 h in [1] is 20 µM (≈ 9.97 µg/mL). For the same compound, the AUC(0-inf) (commonly total exposure, with the tail of the curve extrapolated) in [11] was 8710 ng·h/mL; in data set [13] it was 10200 ng·h/mL; in data set [20], 3110 ng·h/mL. For the same compound, the values for the Cmax in data set [14], in data set [19] and in [22] were 2890 ng/mL, 1480 ng/mL and 1380 ng/mL, respectively.
In [23], `Cn1cc(Nc2nc(N)nc(-c3cccc(-n4ccc5cc(C6CC6)cc(F)c5c4=O)c3CO)n2)cn1.O=S(=O)(O)O` returned an MRT inf of 3.31 h. Also, the AUC(0-inf) worked out at 10000 ng·h/mL in [24] and 11500 ng·h/mL in [26]. In addition, the Tmax (as a rule, the time at which the peak concentration occurs) in data set [25] turned out to be 2 h. Moreover, the values for the Cmax in data set [27] and in data set [28] were 4960 ng/mL and 2090 ng/mL, respectively. Further, the Vd (commonly the apparent volume that relates the amount in the body to the concentration in plasma or blood) in data set [29] turned out to be 0.29 L/kg. Also, the values for the area under the curve AUC(0-t) in data set [30] and in data set [31] were 9850 ng·h/mL and 11300 ng·h/mL, respectively. For the same compound, in data set [32], the bioavailability came out at 43.7%.
On to `Cn1cc(Nc2nc(N)nc(-c3cccc(-n4ccc5cc(C6CC6)cc(F)c5c4=O)c3CO)n2)cc1C#N`, for which the solubility kinetic at 1 h in [1] was 0.67 µM (≈ 0.35 µg/mL).
Still for that read-out and setting: the value for `Nc1nc(Nc2ccc(N3CCOCC3)cc2)nc(-c2cccc(-n3ccc4cc(C5CC5)cc(F)c4c3=O)c2CO)n1` was 1.2 µM (≈ 0.696 µg/mL).
As to `CC(C)(C)c1ccc(C(=O)Nc2cccc(-c3nc(N)nc(Nc4ccc(C(=O)N5CCOCC5)cc4)n3)c2CO)cc1`, the apparent permeability coefficient (Papp) in data set [2] is 7.4 ×10⁻⁶ cm/s.
With `COCCOCCn1cc(Nc2nc(N)nc(-c3cccc(-n4ccc5cc(C6CC6)cc(F)c5c4=O)c3CO)n2)cc1C#N`, the solubility kinetic at 1 h in data set [1] stood at 9.5 µM (≈ 5.8 µg/mL).
